The term EC50 denotes the concentration giving half of the maximal effect.

Where a name gives a salt, the structure may show the parent alone. Some results are limits rather than exact numbers.

In one experiment the target is Sphingosine 1-phosphate receptor 1 (Homo sapiens, UniProt P21453). The experiment can be described thus: potentiators of S1P1 agonist response, dose response, cell-based, potentiator mode, 60K MLSMR set (AID 466).
Sphingosine 1-phosphate receptor 1, sequence (P21453 whole entry): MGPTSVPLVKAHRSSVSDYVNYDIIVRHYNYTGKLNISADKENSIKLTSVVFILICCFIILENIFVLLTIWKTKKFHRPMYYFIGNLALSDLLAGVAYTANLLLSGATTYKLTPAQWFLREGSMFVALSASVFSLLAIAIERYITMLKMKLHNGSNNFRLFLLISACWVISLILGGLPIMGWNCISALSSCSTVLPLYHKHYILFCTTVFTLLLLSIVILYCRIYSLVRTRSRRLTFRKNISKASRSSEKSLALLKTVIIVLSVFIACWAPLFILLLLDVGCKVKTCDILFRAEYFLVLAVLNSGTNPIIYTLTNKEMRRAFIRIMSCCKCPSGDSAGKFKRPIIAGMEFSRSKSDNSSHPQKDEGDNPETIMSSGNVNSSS
Settings: not given
On to `Nc1nonc1C(=O)NCCNCc1cc(Br)ccc1OCc1ccc(F)cc1` [4-amino-N-[2-[[5-bromo-2-(4-fluorobenzyl)oxy-benzyl]amino]ethyl]furazan-3-carboxamide;hydrochloride], for which the EC50 was determined as 7.81 µM.
Still for that read-out and setting: for `Clc1ccccc1C1=Nn2c(nnc2-c2ccncc2)SC1` [6-(2-chlorophenyl)-3-(4-pyridyl)-7H-[1,2,4]triazolo[3,4-b][1,3,4]thiadiazine] the value was 5.66 µM; for `O=C(NCc1ccc2c(c1)OCO2)C1CC(=O)N(C2CCCCCCC2)C1` (stereo not drawn) [1-cyclooctyl-5-keto-N-piperonyl-pyrrolidine-3-carboxamide], over 95 µM; for `COCCn1c(C)cc(C(=O)CSc2nnc(-c3cccnc3)n2-c2ccccc2F)c1C` [2-[[4-(2-fluorophenyl)-5-(3-pyridinyl)-1,2,4-triazol-3-yl]thio]-1-[1-(2-methoxyethyl)-2,5-dimethyl-3-pyrrolyl]ethanone], 1.22 µM.
Turning to `CCCc1cc(C(=O)N2CCN(C(c3ccccc3)c3ccccc3)CC2)no1` [(4-benzhydrylpiperazin-1-yl)-(5-propyl-1,2-oxazol-3-yl)methanone], the EC50 is 5.97 µM.
The same measure, in the same setting: for `O=C(c1cc(-c2ccc(O)cc2)on1)N1CCc2ccccc2C1` [4-[3-(3,4-dihydro-1H-isoquinolin-2-ylcarbonyl)-2H-1,2-oxazol-5-ylidene]cyclohexa-2,5-dien-1-one] the value was 4.07 µM; for `Cc1cc(-c2nnc(-c3ccccc3)c(-c3ccccc3)n2)c(C)o1` [3-(2,5-dimethyl-3-furanyl)-5,6-diphenyl-1,2,4-triazine], 6.75 µM; for `O=C(Nc1ccc(Cl)cc1)N1CCC(c2nc(-c3ccc(F)cc3)no2)CC1` [4-[3-(4-Fluoro-phenyl)-[1,2,4]oxadiazol-5-yl]-piperidine-1-carboxylic acid (4-chloro-phenyl)-amide], 5.9 µM.
The same measure, in the same setting: for `CCc1ccc(-c2nc(-c3ccncc3)no2)cc1` [5-(4-ethylphenyl)-3-(4-pyridyl)-1,2,4-oxadiazole] the value was 4.41 µM.
Take `Nc1nonc1C(=O)NCCNCc1cc(Br)ccc1OCc1ccccc1F` [4-amino-N-[2-[[5-bromo-2-(2-fluorobenzyl)oxy-benzyl]amino]ethyl]furazan-3-carboxamide;hydrochloride]: the EC50 is 8.9 µM.
`Cc1cc(C(=O)CSc2nnnn2C)c(C)n1-c1cccc(F)c1` [1-[1-(3-fluorophenyl)-2,5-dimethyl-3-pyrrolyl]-2-[(1-methyl-5-tetrazolyl)thio]ethanone]: the EC50 is 1.88 µM.
Same read-out and setting: for `CCOC(=O)c1cccc2c1-c1ccccc1C2N=O` (stereo not drawn) [9-hydroximinofluorene-4-carboxylic acid ethyl ester] the value was 10.2 µM; for `CCOc1ccc(C(=O)Nc2ccc(Cl)cn2)cc1Cl` [3-chloranyl-N-(5-chloranylpyridin-2-yl)-4-ethoxy-benzamide], 4.76 µM.
Same read-out and setting: the figure for `COc1ccc(-c2n[nH]cc2-c2ccc3c(c2)OCCO3)c(O)c1` [(6E)-6-[4-(2,3-dihydro-1,4-benzodioxin-6-yl)-1,2-dihydropyrazol-3-ylidene]-3-methoxycyclohexa-2,4-dien-1-one] is 1.49 µM; for `CCCCn1nnnc1SCC(=O)c1ccc(C)c(C)c1` [2-(1-Butyl-1H-tetrazol-5-ylsulfanyl)-1-(3,4-dimethyl-phenyl)-ethanone] it is 6.19 µM; for `CCN(CC)C(=O)CS/C(=N/C#N)Nc1ccccc1F` [2-[[N-cyano-N'-(2-fluorophenyl)amidino]thio]-N,N-diethyl-acetamide] it is over 95 µM.
For the compound `N#Cc1nc(-c2ccc(OCc3ccccc3)cc2)oc1NCc1cccnc1` [2-(4-benzoxyphenyl)-5-(3-pyridylmethylamino)oxazole-4-carbonitrile], the EC50 amounted to 9.76 µM.
The same measure, in the same setting: the figure for `Cc1cc(C(=O)CC#N)c(C)n1-c1ccc(OC(F)F)cc1` [3-[1-[4-(difluoromethoxy)phenyl]-2,5-dimethyl-3-pyrrolyl]-3-oxopropanenitrile] is over 30 µM; for `Cc1cccc(NC(=O)Nc2ccc(C#N)cc2)n1` [1-(4-cyanophenyl)-3-(6-methyl-2-pyridinyl)urea] it is over 30 µM.
For `CCOc1cc(C2NCc3ccccc3-n3cccc32)ccc1O` (stereo not drawn) [4-(5,6-dihydro-4H-pyrrolo[1,2-a][1,4]benzodiazepin-4-yl)-2-ethoxy-phenol;hydrochloride], the EC50 amounted to 15 µM.
Regarding `CCN(CC)c1ccc2cc(NC(=O)CCC(=O)O)c(=O)oc2c1` [4-[[7-(diethylamino)-2-keto-chromen-3-yl]amino]-4-keto-butyric acid], the EC50 was 8.31 µM.
Same read-out and setting: the figure for `Cc1ccc2oc(-c3ccc(NC(=O)c4cccnc4)cc3)nc2c1` [MLS000068975] is 2.81 µM.
As to `COc1ccc(-n2nc3ccc(NS(C)(=O)=O)cc3n2)cc1Cl` [MLS000049114], the EC50 was found to be 0.126 µM.
As to `CCOc1ccc(-c2nnc(-c3cccnc3)o2)cc1OCC` [2-(3,4-diethoxyphenyl)-5-(3-pyridinyl)-1,3,4-oxadiazole], the EC50 worked out at 2.33 µM.
Take `O=C(Nc1nc(-c2ccc(Cl)s2)cs1)c1ccncc1` [MLS000098514]: the EC50 is over 10 µM.
Still for that read-out and setting: for `COc1ccc(-c2nc(-c3ccc(Br)o3)no2)cc1OC` [3-(5-bromanylfuran-2-yl)-5-(3,4-dimethoxyphenyl)-1,2,4-oxadiazole] the value was 5.87 µM; for `Clc1ccc(NCn2cncn2)nc1`, over 95 µM.
Turning to `Cc1cc(N2CCN(C/C=C/c3ccccc3)CC2)n2ncnc2n1` [5-Methyl-7-[4-((E)-3-phenyl-allyl)-piperazin-1-yl]-[1,2,4]triazolo[1,5-a]pyrimidine], the EC50 was over 30 µM.
Still for that read-out and setting: for `COc1ccc(-c2nc3cc(NC(=O)Cc4ccc(OC)c(OC)c4)ccc3o2)cc1` [2-(3,4-dimethoxyphenyl)-N-[2-(4-methoxyphenyl)-1,3-benzoxazol-5-yl]acetamide] the value was 9.09 µM; for `Cc1noc(/C=C/N(C)C)c1S(=O)(=O)N1CCc2ccccc21` [(E)-2-[4-(2,3-dihydroindol-1-ylsulfonyl)-3-methyl-1,2-oxazol-5-yl]-N,N-dimethyl-ethenamine], over 95 µM; for `Cc1cc(C(=O)CSc2nnc(-c3cccnc3)n2-c2ccccc2F)c(C)n1C` [SMR000064090], 0.87 µM.
On the same count and under the same terms, for `N#CCCS(=O)(=O)c1nnnn1-c1ccccc1` [3-(1-phenyltetrazol-5-yl)sulfonylpropanenitrile] the value was 3.55 µM.
As to `COc1ccc(-c2cn3c(C)c(C(=O)N4CCCc5ccccc54)sc3n2)cc1` [3,4-dihydro-2H-quinolin-1-yl-[6-(4-methoxyphenyl)-3-methyl-2-imidazo[2,1-b]thiazolyl]methanone], the EC50 was over 30 µM.
Take `O=C(Nc1cccc(C(F)(F)F)c1)N1CCC(c2nc(-c3ccc(F)cc3)no2)CC1` [4-[3-(4-Fluoro-phenyl)-[1,2,4]oxadiazol-5-yl]-piperidine-1-carboxylic acid (3-trifluoromethyl-phenyl)-amide]: the concentration for a half-maximal effect (EC50) is 6.42 µM.
Same read-out and setting: for `COCCn1c(C)cc(C(=O)CSc2nc3ccccc3c(=O)[nH]2)c1C` [2-[[2-[1-(2-methoxyethyl)-2,5-dimethyl-3-pyrrolyl]-2-oxoethyl]thio]-1H-quinazolin-4-one] the value was 64.4 µM; for `Cc1nc2ccc3nc(NC(=O)C4COc5ccccc5O4)sc3c2s1` (stereo not drawn) [MLS000100909], 4.01 µM.
Regarding `CN=C(NC#N)SCC(=O)c1ccc(Cl)cc1Cl` [[2-(2,4-dichlorophenyl)-2-oxidanylidene-ethyl] N-cyano-N'-methyl-carbamimidothioate], the EC50 stood at 4.32 µM.
`O=C(CCC(=O)N(Cc1ccco1)C(C(=O)NC1CCCC1)c1ccncc1)Nc1cccnc1` (stereo not drawn) [MLS000033292]: the EC50 was over 95 µM.

Still in this experiment, the particulars now being: inactive by the depositor's call.
Take `O=C(Nc1nc(-c2ccc3c(c2)OCO3)cs1)c1ccncc1` [MLS000073104]: the EC50 was 12 µM.
Still for that read-out and setting: for `CCCn1c(CN2CCN(c3cccc(Cl)c3)CC2)nc2c1c(=O)n(C)c(=O)n2C` [8-[[4-(3-chlorophenyl)-1-piperazinyl]methyl]-1,3-dimethyl-7-propylpurine-2,6-dione] the value was 18.8 µM; for `O=C1CC(N2CCN(C/C=C/c3ccccc3)CC2)C(=O)N1CCc1ccccc1` (stereo not drawn) [1-(2-phenylethyl)-3-[4-[(E)-3-phenylprop-2-enyl]-1-piperazinyl]pyrrolidine-2,5-dione], 19.3 µM.
For the compound `COc1cccc(-c2csc(N3CCN(CC(=O)Nc4ccc5c(c4)OCO5)CC3)n2)c1` [MLS000070935], the EC50 is 17.9 µM.
On to `Cc1cc(C(=O)COC(=O)c2csc3c2CCCC3)c(C)n1C` [4,5,6,7-tetrahydro-1-benzothiophene-3-carboxylic acid [2-oxo-2-(1,2,5-trimethyl-3-pyrrolyl)ethyl] ester], for which the EC50 was determined as 17.5 µM.
Same read-out and setting: for `CC1CC(C)(C)Nc2ccc(OC(=O)c3ccco3)cc21` (stereo not drawn) [(2,2,4-trimethyl-3,4-dihydro-1H-quinolin-6-yl) furan-2-carboxylate] the value was 14 µM.
Same read-out and setting: for `CC(C)Cc1cc(C(=O)Nc2cc(Br)ccc2O)no1` [MLS000116399] the value was 16.5 µM; for `CCN(CC)C(=O)Oc1ccc2c(=O)c(-c3ccc(OC)cc3)coc2c1` [MLS000083046], 10.9 µM.
On the same count and under the same terms, for `O=C(OC1CCCCC1)c1ccc(NC(=O)c2ccco2)cc1` [4-(2-furoylamino)benzoic acid cyclohexyl ester] the value was 12.2 µM; for `CCOC(=O)c1oc2ccc(S(=O)(=O)n3nc(-c4ccc(OC)cc4)cc3N)cc2c1C` [5-[5-amino-3-(4-methoxyphenyl)pyrazol-1-yl]sulfonyl-3-methyl-coumarilic acid ethyl ester], 44.3 µM; for `CC1=CC(C)(C)Nc2ccc(OC(=O)c3ccco3)cc21`, 18 µM.
For the compound `COc1ccc(CNc2cc(C)nc3ncnn23)c(OC)c1` [(2,4-Dimethoxy-benzyl)-(5-methyl-[1,2,4]triazolo[1,5-a]pyrimidin-7-yl)-amine], the EC50 was 16 µM.
As for `COc1ccc(S(=O)(=O)Cc2ccc(C(=O)N3CCN(c4ccc(Cl)cc4)CC3)o2)cc1` [MLS000120227], the EC50 came out at 14.7 µM.
With `CC(=O)Nc1ccc(S(=O)(=O)N2CCN(CCCOc3cc(C)ccc3C)CC2)cc1` [MLS000050317], the EC50 came to 17.5 µM.
Still for that read-out and setting: for `CN1c2ccccc2C(C)(C)C12C=Cc1cc(O)ccc1O2` (stereo not drawn) [1',3',3'-trimethyl-6-spiro[1-benzopyran-2,2'-indole]ol] the value was 12.3 µM.

Values taken from BindingDB's records for doi:10.7270/Q2ZC817P (The Scripps Research Institute Molecular Screening Center, 2007).
